This note sets out measurements from ChEMBL document CHEMBL5543172, “Novel Isoalantolactone-Based Derivatives as Potent NLRP3 Inflammasome Inhibitors: Design, Synthesis, and Biological Characterization” (J Med Chem, 2024).

Data set [1] can be described thus: Metabolic stability in mouse liver microsomes assessed as half life preincubated for 5 mins followed by NADPH addition and measured upto 60 mins by LC-MS/MS analysis. It is filed as ADME, Microsome. The following applies: time < 65 min. (Liver microsomes are a subcellular fraction often used to study metabolism.)
Data set [2] in a line: Metabolic stability in human liver microsomes assessed as half life preincubated for 5 mins followed by NADPH addition and measured upto 60 mins by LC-MS/MS analysis. Format: ADME, Microsome. The note with it: time < 65 min.
Data set [3] in a line: Tmax in male C57BL/6 mouse at 30 mg/kg, ip measured upto 1440 mins by LC-MS/MS analysis. It is filed as ADME, organism-based. The note with it: in vivo.
Data set [4] in a line: Drug distribution in C57BL/6 mouse colon at 30 mg/kg, ip measured after 2 hrs by LC-MS/MS analysis. It is filed as ADME, organism-based. The note with it: read-out: Drug uptake.
Data set [5] is described as follows: MRT (0 to t) in male C57BL/6 mouse at 30 mg/kg, ip measured upto 1440 mins by LC-MS/MS analysis. It is filed as ADME, organism-based. The note with it: in vivo.
The nature of data set [6]: Drug distribution in C57BL/6 mouse plasma at 30 mg/kg, ip measured after 2 hrs by LC-MS/MS analysis. Format: ADME, organism-based.
A short description of data set [7]: Drug distribution in C57BL/6 mouse colon at 30 mg/kg, ip measured after 24 hrs by LC-MS/MS analysis. Format: ADME, organism-based. The note with it: read-out: Drug uptake.
Data set [8] can be described thus: Cmax in male C57BL/6 mouse at 30 mg/kg, ip measured upto 1440 mins by LC-MS/MS analysis. The note with it: in vivo. It is filed as ADME, organism-based.
Data set [9] in a line: Drug distribution in C57BL/6 mouse plasma at 30 mg/kg, ip measured after 0.5 hrs by LC-MS/MS analysis. It is filed as ADME, organism-based.
Data set [10] is described as follows: Drug distribution in C57BL/6 mouse colon at 30 mg/kg, ip measured after 0.5 hrs by LC-MS/MS analysis. It is filed as ADME, organism-based. The note with it: read-out: Drug uptake.
Data set [11] in a line: AUC (0 to t) in male C57BL/6 mouse at 30 mg/kg, ip measured upto 1440 mins by LC-MS/MS analysis. It is filed as ADME, organism-based. The note with it: in vivo.
Data set [12] in a line: Half life in male C57BL/6 mouse at 30 mg/kg, ip measured upto 1440 mins by LC-MS/MS analysis. Format: ADME, organism-based. The note with it: in vivo.
A short description of data set [13]: Drug distribution in C57BL/6 mouse colon at 30 mg/kg, ip measured after 8 hrs by LC-MS/MS analysis. Format: ADME, organism-based. The following applies: read-out: Drug uptake.
Data set [14] can be described thus: Apparent oral clearance in male C57BL/6 mouse at 30 mg/kg, ip measured upto 1440 mins by LC-MS/MS analysis. Format: ADME, organism-based. The note with it: in vivo, read-out: CLz/F (converted).

What is called half-life is how long it takes for the measured level to halve. In the case of `C=C1C(=O)O[C@@H]2C[C@@]3(C)CC[C@@H](OC(=O)c4cc(Cl)cnc4Cl)C(=C)[C@@H]3C[C@H]12`, the half-life in data set [1] came out at 12.6 min; in [2], 95.7 min.
Take `C=C1C(=O)O[C@@H]2C[C@@]3(C)CC[C@@H](OC(=O)/C=C/C(=O)c4ccc(C(F)(F)F)cc4)C(=C)[C@@H]3C[C@H]12`: the results for the half-life in data set [1] and in data set [2] were 27.2 min and 20.6 min, respectively.
Turning to `C=C1C(=O)O[C@@H]2C[C@@]3(C)CC[C@@H](OC(=O)/C=C/C(=O)c4ccccc4)C(=C)[C@@H]3C[C@H]12`, the half-life was found to be 19.2 min in data set [1] and 10.4 min in [2].
On to `C=C1C(=O)O[C@@H]2C[C@@]3(C)CC[C@@H](OC(=O)c4c(Cl)ccnc4Cl)C(=C)[C@@H]3C[C@H]12`, for which the half-life turned out to be 47.1 min in data set [1] and 118 min in [2].
By Tmax is commonly meant the time from dosing to the highest level. A word on the MRT last: it is a mean duration of stay, worked out from the concentration-time curve. For orientation: Cmax means the peak of the concentration-time curve. Broadly, the AUC(0-t) is the area under the concentration-time curve up to a stated or last time point. For `C=C1C(=O)O[C@@H]2C[C@@]3(C)CCCC(=C)[C@@H]3C[C@H]12` [ISOALANTOLACTONE], in data set [3], the Tmax came out at 13.2 min. Besides, the concentration at 2 h is 293 ng/g in data set [4] and 7.71 ng/mL in [6]. In addition, the MRT last at 24 h in data set [5] turned out to be 110 min. Further, the concentration at 24 h in data set [7] came to 26.9 ng/g. The compound also registered a Cmax in data set [8] of 159 ng/mL. For the same compound, the values for the concentration at 0.5 h in data set [9] and in [10] were 27.4 ng/mL and 3320 ng/g, respectively. In [11], the AUC(0-t) at 24 h came out at 230 ng·h/mL. Further, the half-life is 9.1 min in data set [1], 127 min in data set [12] and 4.47 min in data set [2]. For the same compound, the concentration at 8 h in [13] was found to be 3120 ng/g. Further, the CL/F in data set [14] was 2020 mL/min/kg.
Consider `C=C1C(=O)O[C@@H]2C[C@@]3(C)CC[C@@H](OC(=O)/C=C/C(=O)c4ccc(F)cc4)C(=C)[C@@H]3C[C@H]12`, for which the half-life in data set [1] is 44.1 min; in [2] it was 31.1 min.
